The values below come from paper PMC8476755 (Frontiers in Chemistry, 2021).

The assay concerns the target T1, GAT3 L314Q (Homo sapiens, UniProt P48066, L314Q).
T1 construct: expressed in transfected cells; host or cells: tsA201 (transformed HEK293), transient
T1 sequence (P48066 1-632 L314Q): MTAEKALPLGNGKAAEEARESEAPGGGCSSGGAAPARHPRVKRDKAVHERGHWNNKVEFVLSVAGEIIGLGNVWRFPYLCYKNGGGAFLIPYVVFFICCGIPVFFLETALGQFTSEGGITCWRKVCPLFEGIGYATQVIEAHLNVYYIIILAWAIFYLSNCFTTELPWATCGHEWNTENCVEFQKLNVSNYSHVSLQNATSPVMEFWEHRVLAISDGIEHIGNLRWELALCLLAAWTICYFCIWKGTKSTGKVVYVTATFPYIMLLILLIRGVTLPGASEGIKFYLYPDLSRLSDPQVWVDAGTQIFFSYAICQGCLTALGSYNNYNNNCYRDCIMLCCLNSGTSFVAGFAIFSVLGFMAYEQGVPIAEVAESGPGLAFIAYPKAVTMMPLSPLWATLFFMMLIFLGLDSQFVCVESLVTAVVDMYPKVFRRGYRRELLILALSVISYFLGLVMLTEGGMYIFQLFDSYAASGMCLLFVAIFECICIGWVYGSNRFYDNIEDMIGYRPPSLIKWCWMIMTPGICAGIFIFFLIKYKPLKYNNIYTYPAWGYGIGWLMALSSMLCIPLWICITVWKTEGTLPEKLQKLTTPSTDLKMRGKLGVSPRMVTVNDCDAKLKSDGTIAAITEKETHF
As to the kind of experiment: [3H]GABA uptake assay, transient expression in tsA201 cells. It counts as cell-based. The conditions noted are these: for Increase in inhibitory activity relative to wt: GAT3 L314Q vs GAT3 wt; for IC50: GAT3 L314Q, tsA201 cells. An excerpt: According to the docking and MD results, the sidechains of Q299 and E52 were identified to form crucial interactions with the protonated nitrogen of both compounds. The residue Q299 in human BGT1 corresponds to leucine in all other GATs (human, rat, mouse), while E52 corresponds to tyrosine in GAT1 (human, rat, mouse) but is conserved among GAT2, GAT3 and BGT1 (human, rat, mouse) (Figure 6A) ([Kickinger et al., 2019]). Thus, we engineered the corresponding mutants Q299L and E52Y in human BGT1 and predicted that the introduction of these mutations would lead to decreased activity of both bicyclo-GABA and 2 due to the loss of essential hydrogen bond interactions. Furthermore, we wanted to test the double mutant E52Y + Q299L. However, in a previous study this mutant was proven non-functional ([Kickinger et al., 2020]). Instead, we generated the double mutant E52A + Q299L as well as the single mutant E52A. For these mutants we predicted decreased activity. Lastly, the reciprocal mutation to BGT1 Q299L was created in GAT3 (L314Q), ideally expecting a gain-of-function.
FIGURE 6 (A) Pocket alignment of the orthosteric site of the four GAT subtypes colored according to the default ClustalX color scheme ([Larkin et al., 2007]). The pocket was defined as all corresponding GAT residues (15 in total) that are within a distance of 4.5 Å of the co-crystallized ligand leucine in the homologous LeuT crystal structure (PDB ID 2A65) ([Yamashita et al., 2005]) according to the alignment by Kickinger et al. ([Kickinger et al., 2019]). The mutated residues in BGT1 and the corresponding residues in GAT1-3 are indicated by a red box. The numbering of all residues within the orthosteric pocket can be found in the Supplementary Table S1.
The tsA201 cell line (a transformed HEK293 cell line), the Flp-In CHO cell lines stably expressing human (h) GATs and the HEK293 cell line stably expressing human α1β2γ2 GABAA receptors have been described previously and were cultured accordingly ([Al-Khawaja et al., 2014]; [Falk-Petersen et al., 2020]). The tsA201 cell line used for transient expression of hGATs was transfected with DNA constructs (8 μg per 10 cm plate) using 40 μL PolyFect transfection reagent according to the manufacturer’s protocol (Qiagen). All DNA constructs used have been described previously: wt hBGT1, wt GAT3 ([Kvist et al., 2009]), BGT1 Q299, GAT3 L314Q ([Jørgensen et al., 2017]), hBGT E52Y, BGT1 E52A and BGT1 E52A + Q299L ([Kickinger et al., 2020]).
Briefly, cells were seeded in white 96-well plates (White Opaque Tissue Culture (TC) plated 96-well Microplate) pre-coated with PDL. Medium was removed on the following day and cells washed with 100 µL/well assay buffer (HBSS supplemented with 20 mM HEPES, 1 mM CaCl2 and 1 mM MgCl2, pH 7.4). […] The cells were washed 3 times with 100 µL/well ice-cold assay buffer, 150 µL/well MicroScint™20 was subsequently added before the plate was shaken for at least 1 h. The plate was counted in a Packard TopCounter microplate scintillation counter (PerkinElmer) for 3 min per well. Typical counts per minute for the different GATs were in the range of: wt hBGT1 (100–4,000), BGT1 Q299 (100–1,000), hBGT E52Y (150–500), BGT1 E52A (150–8,000), BGT1 E52A + Q299L (150–500), wt GAT3 (200–8,000), GAT3 L314Q (100–1,500), wt GAT1 (100–10,000) and wt GAT2 (150–7,500). […] Data presented is the pooled data of at least three independent experiments with three technical replicates if not stated otherwise in figure legends. Concentration–response curves were fitted by non-linear regression to the sigmoidal concentration-response model with GraphPad Prism (version 9.0.0, GraphPad Software, San Diego, CA, United States) as described ([Lie et al., 2020]).

Like-named read-outs stand apart in the source and are kept apart here.

Regarding `N[C@@]12CC[C@H](C(=O)O)[C@@H]1C2` [bicyclo-GABA, (1S,2S,5R)-5-aminobicyclo[3.1.0]hexane-2-carboxylic acid], the “Increase in inhibitory activity relative to wt” value is recorded as 38 times. In addition, for the setting “read-out: IC50”, the IC50 came to 16 µM. The IC50 (read-out: pIC50 ± S.E.M. (converted)) was 12.6 µM.
For the compound `CN[C@@]12CC[C@H](C(=O)O)[C@@H]1C2` [compound 2], the “Increase in inhibitory activity relative to wt” value is “not increased”. Besides, the IC50 (read-out: IC50) is 291 µM.
